In ChEMBL document CHEMBL1201862, “PubChem BioAssay data set” (2004):
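Compound exposure: 48 hours, 5 concentrations, 96-well plates. At the GI50, growth is halved.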 Activity calls are given as the source filed them. Rule as the data show it: active = GI50 up to about 1.1 µM and inactive = higher.

How the values were obtained:
Assay in all cases: NCI-60 cell line screen, 48 h
786-0 = system: 786-0
A498 = system: A498
A549 = system: A549
ACHN = system: ACHN
CAKI-1 = system: CAKI-1
CCRF-CEM = system: CCRF-CEM
COLO 205 = system: COLO 205
DLD-1 = system: DLD-1
DMS-114 = system: DMS-114
DMS-273 = system: DMS-273
EKVX = system: EKVX
HCC 2998 = system: HCC 2998
HCT-116 = system: HCT-116
HCT-15 = system: HCT-15
HL-60 = system: HL-60
HOP-18 = system: HOP-18
HOP-62 = system: HOP-62
HOP-92 = system: HOP-92
HT-29 = system: HT-29
IGROV-1 = system: IGROV-1
K562 = system: K562
KM-20L2 = system: KM-20L2
KM12 = system: KM12
LOX IMVI = system: LOX IMVI
LXFL 529 = system: LXFL 529
M14 = system: M14
M19-MEL = system: M19-MEL
MOLT-4 = system: MOLT-4
Malme-3M = system: Malme-3M
NCI-H226 = system: NCI-H226
NCI-H23 = system: NCI-H23
NCI-H460 = system: NCI-H460
NCI-H522 = system: NCI-H522
OVCAR-3 = system: OVCAR-3
OVCAR-4 = system: OVCAR-4
OVCAR-5 = system: OVCAR-5
OVCAR-8 = system: OVCAR-8
RPMI-8226 = system: RPMI-8226
SF-268 = system: SF-268
SF-295 = system: SF-295
SF-539 = system: SF-539
SK-MEL-28 = system: SK-MEL-28
SK-MEL-2 = system: SK-MEL-2
SK-MEL-5 = system: SK-MEL-5
SK-OV-3 = system: SK-OV-3
SN12C = system: SN12C
SNB-19 = system: SNB-19
SNB-75 = system: SNB-75
SNB-78 = system: SNB-78
SR = system: SR
SW-620 = system: SW-620
TK-10 = system: TK-10
U-251 = system: U-251
UACC-257 = system: UACC-257
UACC-62 = system: UACC-62
UO-31 = system: UO-31
XF498 = system: XF498
RXF 393 = system: RXF 393

Measured: GI50

O=C(O)[C@@H]1OCCOCCO[C@@H](C(=O)O)[C@H](C(=O)O)OCCOCCO[C@H]1C(=O)O
inactive: 786-0 > 100 µM | A498 > 100 µM | A549 > 100 µM | ACHN > 61.8 µM | CAKI-1 > 100 µM | CCRF-CEM > 51.2 µM | COLO 205 > 61.7 µM | DLD-1 > 42.1 µM | DMS-114 > 50.8 µM | DMS-273 > 100 µM | EKVX > 100 µM | HCC 2998 > 100 µM | HCT-116 > 67.8 µM | HL-60 14.3 µM | HOP-18 > 100 µM | HOP-62 > 100 µM | HOP-92 > 100 µM | HT-29 > 100 µM | IGROV-1 > 100 µM | K562 > 72.3 µM | KM-20L2 > 100 µM | KM12 > 100 µM | LOX IMVI > 71.3 µM | LXFL 529 > 100 µM | M14 > 100 µM | M19-MEL > 100 µM | MOLT-4 > 64.3 µM | Malme-3M > 100 µM | NCI-H226 > 100 µM | NCI-H23 > 100 µM | NCI-H460 > 64.4 µM | NCI-H522 > 100 µM | OVCAR-3 > 100 µM | OVCAR-4 > 100 µM | OVCAR-5 > 100 µM | OVCAR-8 > 100 µM | RPMI-8226 > 38.4 µM | SF-268 > 100 µM | SF-295 > 100 µM | SF-539 > 100 µM | SK-MEL-28 > 100 µM | SK-MEL-2 > 100 µM | SK-MEL-5 > 100 µM | SK-OV-3 > 100 µM | SN12C > 100 µM | SNB-19 > 100 µM | SNB-75 97.9 µM | SNB-78 > 100 µM | SR 19.1 µM | SW-620 > 50.1 µM | TK-10 > 100 µM | U-251 > 42.1 µM | UACC-257 > 100 µM | UACC-62 > 100 µM | UO-31 > 100 µM | XF498 > 30.3 µM
> 55.8 µM: HCT-15

O=C(Cc1ccccc1[N+](=O)[O-])C(CO)c1ccccc1[N+](=O)[O-] (centres undefined)
inactive: 786-0 > 100 µM | A498 80.4 µM | A549 72.1 µM | ACHN 38.2 µM | CAKI-1 40.5 µM | CCRF-CEM 71.4 µM | COLO 205 > 100 µM | DLD-1 > 100 µM | DMS-114 67.1 µM | DMS-273 > 100 µM | EKVX 70.6 µM | HCC 2998 > 100 µM | HCT-116 70.5 µM | HL-60 67.1 µM | HOP-18 4.17 µM | HOP-62 > 100 µM | HOP-92 23.6 µM | HT-29 26.2 µM | IGROV-1 > 100 µM | K562 71.1 µM | KM-20L2 > 100 µM | KM12 > 100 µM | LOX IMVI 91.8 µM | LXFL 529 57.1 µM | M14 > 100 µM | M19-MEL 95.9 µM | MOLT-4 35.7 µM | Malme-3M 79.4 µM | NCI-H226 15.6 µM | NCI-H23 45.3 µM | NCI-H460 96.8 µM | NCI-H522 16.8 µM | OVCAR-3 66.1 µM | OVCAR-4 96.4 µM | OVCAR-5 > 100 µM | OVCAR-8 89.5 µM | RPMI-8226 78.7 µM | RXF 393 92.5 µM | SF-268 35.2 µM | SF-295 > 100 µM | SF-539 > 100 µM | SK-MEL-28 > 100 µM | SK-MEL-2 > 100 µM | SK-MEL-5 31.7 µM | SK-OV-3 > 100 µM | SN12C > 100 µM | SNB-19 > 100 µM | SNB-75 67.3 µM | SNB-78 > 100 µM | SW-620 > 100 µM | TK-10 > 100 µM | U-251 > 100 µM | UACC-257 72.3 µM | UACC-62 83 µM | UO-31 19.9 µM | XF498 20.8 µM
> 100 µM: HCT-15
